Among the data in ChEMBL document CHEMBL4373736, “Synthesis and biological evaluation of panaxatriol derivatives against myocardial ischemia/reperfusion injury in the rat” (Eur J Med Chem, 2020) are Activity values, retold here.

Series [1] has as its system Cardiac muscle cell. In words: Cytoprotective activity against OGD/reperfusion induced injury in Sprague-Dawley rat cardiomyocytes assessed as effect on cell viability at 10 uM pretreated for 24 hrs followed by OGD for 2 hrs and subsequent reperfusion for 24 hrs (reference value: 43.9 to 45.4 +/- 1.1 %). The series is classed as functional.
The test system of series [2] is Cardiac muscle cell. Put plainly: Cytotoxicity against Sprague-Dawley rat cardiomyocytes assessed as inhibition of cell growth at 10 uM treated for 50 hrs by MTT assay. The series is classed as cell-based.
Series [3] deals with Cardiac muscle cell. Put plainly: Cytoprotective activity against OGD/reperfusion induced injury in Sprague-Dawley rat cardiomyocytes assessed as effect on cell viability at 1 uM pretreated for 24 hrs followed by OGD for 2 hrs and subsequent reperfusion for 24 hrs (reference value: 43.9 to 45.4 +/- 1.1 %). In kind it is functional.
Series [4] has as its system Cardiac muscle cell. In words: Cytoprotective activity against OGD/reperfusion induced injury in Sprague-Dawley rat cardiomyocytes assessed as effect on cell viability at 0.1 uM pretreated for 24 hrs followed by OGD for 2 hrs and subsequent reperfusion for 24 hrs (reference value: 43.9 to 45.4 +/- 1.1 %). In kind it is functional.

With `CC1(C)CCC[C@](C)([C@H]2CC[C@]3(C)[C@@H]2[C@H](O)C[C@@H]2[C@@]4(C)Cc5c([nH]c6ccc(F)cc56)C(C)(C)[C@@H]4C(=O)C[C@]23C)O1`, the Activity was 63.6% in the series with Cardiac muscle cell [1], “Non-Toxic” in the series on Cardiac muscle cell [2], 58.8% in the series with Cardiac muscle cell [3] and 54.6% with Cardiac muscle cell [4].

Consider `CCOC(=O)c1noc2c1C[C@]1(C)[C@H]3C[C@@H](O)[C@@H]4[C@@H]([C@@]5(C)CCCC(C)(C)O5)CC[C@@]4(C)[C@]3(C)C[C@@H](O)[C@H]1C2(C)C`, for which the Activity is given as 74.7% in the series with Cardiac muscle cell [1], “Non-Toxic” with Cardiac muscle cell [2], 67.9% in the series with Cardiac muscle cell [3] and 57.5% with Cardiac muscle cell [4].

For the compound `CC1(C)CCC[C@](C)([C@H]2CC[C@]3(C)[C@@H]2[C@H](O)C[C@@H]2[C@@]4(C)Cc5sc(-c6ccc(C(F)(F)F)cc6)nc5C(C)(C)[C@@H]4C(=O)C[C@]23C)O1`, the Activity in the series with Cardiac muscle cell [1] is 62.9%; with Cardiac muscle cell [2], “Non-Toxic”; with Cardiac muscle cell [3] it was 57.9%; with Cardiac muscle cell [4], 51.6%.

In the case of `CC1(C)CCC[C@](C)([C@H]2CC[C@]3(C)[C@@H]2[C@H](O)C[C@@H]2[C@@]4(C)Cc5cnn(-c6ccc(F)cc6)c5C(C)(C)[C@@H]4[C@H](O)C[C@]23C)O1`, the Activity in the series with Cardiac muscle cell [1] is listed as 73.2%; with Cardiac muscle cell [2], “Non-Toxic”; with Cardiac muscle cell [3], 65.3%; in the series on Cardiac muscle cell [4], 56.5%.

Regarding `CC1(C)CCC[C@](C)([C@H]2CC[C@]3(C)[C@@H]2[C@H](O)C[C@@H]2[C@@]4(C)Cc5c(C(=O)O)nn(-c6ccccc6)c5C(C)(C)[C@@H]4[C@H](O)C[C@]23C)O1`, the Activity is given as 63.1% with Cardiac muscle cell [1], “Non-Toxic” in the series with Cardiac muscle cell [2], 56.2% in the series with Cardiac muscle cell [3] and 51.2% in the series on Cardiac muscle cell [4].

On to `CNc1nc2c(s1)C[C@]1(C)[C@H]3C[C@@H](O)[C@@H]4[C@@H]([C@@]5(C)CCCC(C)(C)O5)CC[C@@]4(C)[C@]3(C)CC(=O)[C@H]1C2(C)C`, for which the Activity in the series with Cardiac muscle cell [1] was 58.8%; in the series with Cardiac muscle cell [2], “Non-Toxic”; in the series on Cardiac muscle cell [3] it was 52.7%; in the series on Cardiac muscle cell [4], 47%.

`CC1(C)CCC[C@](C)([C@H]2CC[C@]3(C)[C@@H]2[C@H](O)C[C@@H]2[C@@]4(C)Cc5c(n[nH]c5CO)C(C)(C)[C@@H]4[C@H](O)C[C@]23C)O1`: the Activity in the series with Cardiac muscle cell [1] was 75.7%; with Cardiac muscle cell [2] it was “Non-Toxic”; with Cardiac muscle cell [3], 64.6%; in the series on Cardiac muscle cell [4] it was 55%.

Take `CC1(C)CCC[C@](C)([C@H]2CC[C@]3(C)[C@@H]2[C@H](O)C[C@@H]2[C@@]4(C)Cc5sc(N)nc5C(C)(C)[C@@H]4[C@@H](O)C[C@]23C)O1`: the Activity with Cardiac muscle cell [1] is on record as 62.4%; with Cardiac muscle cell [2], “Non-Toxic”; in the series on Cardiac muscle cell [3], 57.6%; in the series on Cardiac muscle cell [4], 52.4%.

Regarding `CCOC(=O)c1nn(-c2ccccc2)c2c1C[C@]1(C)[C@H]3C[C@@H](O)[C@@H]4[C@@H]([C@@]5(C)CCCC(C)(C)O5)CC[C@@]4(C)[C@]3(C)C[C@@H](O)[C@H]1C2(C)C`, the Activity was 63.6% with Cardiac muscle cell [1], “Non-Toxic” in the series with Cardiac muscle cell [2], 56.8% with Cardiac muscle cell [3] and 51.4% in the series with Cardiac muscle cell [4].

Turning to `Cc1nc2c(s1)C[C@]1(C)[C@H]3C[C@@H](O)[C@@H]4[C@@H]([C@@]5(C)CCCC(C)(C)O5)CC[C@@]4(C)[C@]3(C)CC(=O)[C@H]1C2(C)C`, the Activity with Cardiac muscle cell [1] was 58.5%; in the series on Cardiac muscle cell [2], “Non-Toxic”; in the series on Cardiac muscle cell [3], 52.1%; with Cardiac muscle cell [4] it was 48.7%.

Regarding `CC1(C)CCC[C@](C)([C@H]2CC[C@]3(C)[C@@H]2[C@H](O)C[C@@H]2[C@@]4(C)Cc5sc(N)nc5C(C)(C)[C@@H]4C(=O)C[C@]23C)O1`, the Activity is on record as 77.7% in the series on Cardiac muscle cell [1], “Non-Toxic” with Cardiac muscle cell [2], 70.2% in the series with Cardiac muscle cell [3] and 60.2% in the series with Cardiac muscle cell [4].

Take `CC1(C)CCC[C@](C)([C@H]2CC[C@]3(C)[C@@H]2[C@H](O)C[C@@H]2[C@@]4(C)Cc5cnn(-c6ccccc6)c5C(C)(C)[C@@H]4[C@H](O)C[C@]23C)O1`: the Activity with Cardiac muscle cell [1] is 62.5%; in the series on Cardiac muscle cell [2], “Non-Toxic”; in the series with Cardiac muscle cell [3], 57.3%; in the series on Cardiac muscle cell [4], 50.8%.

As to `CC1(C)CCC[C@](C)([C@H]2CC[C@]3(C)[C@@H]2[C@H](O)C[C@@H]2[C@@]4(C)Cc5c([nH]c6c(Cl)cc(F)cc56)C(C)(C)[C@@H]4C(=O)C[C@]23C)O1`, the Activity with Cardiac muscle cell [1] is reported as 62.1%; in the series on Cardiac muscle cell [2], “Non-Toxic”; with Cardiac muscle cell [3], 57.1%; with Cardiac muscle cell [4], 52.9%.

As to `CCOC(=O)c1[nH]nc2c1C[C@]1(C)[C@H]3C[C@@H](O)[C@@H]4[C@@H]([C@@]5(C)CCCC(C)(C)O5)CC[C@@]4(C)[C@]3(C)C[C@@H](O)[C@H]1C2(C)C`, the Activity in the series on Cardiac muscle cell [1] is 60.4%; in the series with Cardiac muscle cell [2] it was “Non-Toxic”; in the series with Cardiac muscle cell [3] it was 54.1%; in the series with Cardiac muscle cell [4] it was 48%.

In the case of `CC1(C)CCC[C@](C)([C@H]2CC[C@]3(C)[C@@H]2[C@H](O)C[C@@H]2[C@@]4(C)Cc5c([nH]c6ccc(Cl)cc56)C(C)(C)[C@@H]4C(=O)C[C@]23C)O1`, the Activity is given as 62.7% in the series with Cardiac muscle cell [1], “Non-Toxic” with Cardiac muscle cell [2], 57.3% in the series with Cardiac muscle cell [3] and 51.7% in the series on Cardiac muscle cell [4].

With `CC1(C)CCC[C@](C)([C@H]2CC[C@]3(C)[C@@H]2[C@H](O)C[C@@H]2[C@@]4(C)Cc5sc(Nc6ccccc6)nc5C(C)(C)[C@@H]4C(=O)C[C@]23C)O1`, the Activity is 63% with Cardiac muscle cell [1], “Non-Toxic” in the series with Cardiac muscle cell [2], 56% in the series with Cardiac muscle cell [3] and 49.7% in the series on Cardiac muscle cell [4].

As to `CC(=O)Nc1nc2c(s1)C[C@]1(C)[C@H]3C[C@@H](O)[C@@H]4[C@@H]([C@@]5(C)CCCC(C)(C)O5)CC[C@@]4(C)[C@]3(C)CC(=O)[C@H]1C2(C)C`, the Activity is reported as 61.2% in the series with Cardiac muscle cell [1], “Non-Toxic” in the series with Cardiac muscle cell [2], 53.6% in the series on Cardiac muscle cell [3] and 48.6% in the series with Cardiac muscle cell [4].

Consider `CC1(C)CCC[C@](C)([C@H]2CC[C@]3(C)[C@@H]2[C@H](O)C[C@@H]2[C@@]4(C)Cc5sc(NC(=N)N)nc5C(C)(C)[C@@H]4C(=O)C[C@]23C)O1`, for which the Activity in the series with Cardiac muscle cell [1] is recorded as 57.2%; in the series with Cardiac muscle cell [2], “Non-Toxic”; in the series on Cardiac muscle cell [3] it was 52.5%; in the series on Cardiac muscle cell [4], 48.9%.

In the case of `CCOC(=O)c1nc2c(s1)C[C@]1(C)[C@H]3C[C@@H](O)[C@@H]4[C@@H]([C@@]5(C)CCCC(C)(C)O5)CC[C@@]4(C)[C@]3(C)CC(=O)[C@H]1C2(C)C`, the Activity in the series with Cardiac muscle cell [1] was 86.6%; in the series with Cardiac muscle cell [2], “Non-Toxic”; in the series on Cardiac muscle cell [3] it was 75.3%; in the series on Cardiac muscle cell [4], 59.1%.

For the compound `CC1(C)CCC[C@](C)([C@H]2CC[C@]3(C)[C@@H]2[C@H](O)C[C@@H]2[C@@]4(C)Cc5c(n[nH]c5C(F)(F)F)C(C)(C)[C@@H]4[C@H](O)C[C@]23C)O1`, the Activity in the series on Cardiac muscle cell [1] is recorded as 76.4%; with Cardiac muscle cell [2], “Non-Toxic”; in the series with Cardiac muscle cell [3], 67.6%; in the series on Cardiac muscle cell [4], 60.2%.

With `COc1ccc2[nH]c3c(c2c1)C[C@]1(C)[C@H]2C[C@@H](O)[C@@H]4[C@@H]([C@@]5(C)CCCC(C)(C)O5)CC[C@@]4(C)[C@]2(C)CC(=O)[C@H]1C3(C)C`, the Activity was 88% with Cardiac muscle cell [1], “Non-Toxic” with Cardiac muscle cell [2], 79.6% in the series on Cardiac muscle cell [3] and 70.1% in the series on Cardiac muscle cell [4].

With `CC1(C)CCC[C@](C)([C@H]2CC[C@]3(C)[C@@H]2[C@H](O)C[C@@H]2[C@@]4(C)Cc5c([nH]c6ccc(OC(F)(F)F)cc56)C(C)(C)[C@@H]4C(=O)C[C@]23C)O1`, the Activity with Cardiac muscle cell [1] is 78.4%; in the series on Cardiac muscle cell [2] it was “Non-Toxic”; with Cardiac muscle cell [3] it was 70.8%; with Cardiac muscle cell [4], 64.4%.

With `COc1ccc(-c2nc3c(s2)C[C@]2(C)[C@H]4C[C@@H](O)[C@@H]5[C@@H]([C@@]6(C)CCCC(C)(C)O6)CC[C@@]5(C)[C@]4(C)CC(=O)[C@H]2C3(C)C)cc1`, the Activity in the series on Cardiac muscle cell [1] is recorded as 78.5%; in the series on Cardiac muscle cell [2] it was “Non-Toxic”; in the series with Cardiac muscle cell [3] it was 71.3%; in the series on Cardiac muscle cell [4] it was 64.9%.

As for `CC1(C)CCC[C@](C)([C@H]2CC[C@]3(C)[C@@H]2[C@H](O)C[C@@H]2[C@@]4(C)Cc5sc(-c6ccc(Cl)cc6)nc5C(C)(C)[C@@H]4C(=O)C[C@]23C)O1`, the Activity is 60.3% with Cardiac muscle cell [1], “Non-Toxic” in the series with Cardiac muscle cell [2], 54.8% in the series with Cardiac muscle cell [3] and 49.5% with Cardiac muscle cell [4].

For the compound `CC1(C)CCC[C@](C)([C@H]2CC[C@]3(C)[C@@H]2[C@H](O)C[C@@H]2[C@@]4(C)Cc5cnoc5C(C)(C)[C@@H]4[C@H](O)C[C@]23C)O1`, the Activity is listed as 76.9% in the series on Cardiac muscle cell [1], “Non-Toxic” with Cardiac muscle cell [2], 67.2% in the series with Cardiac muscle cell [3] and 60.6% in the series on Cardiac muscle cell [4].
